In ChEMBL document CHEMBL1201862, “PubChem BioAssay data set” (2004):
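Five compound concentrations were applied to cells in 96-well plates for 48 hours; endpoints were derived by simple linear interpolation of the resulting dose-response curve. GI50: concentration for 50% inhibition of growth.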 Active and inactive are the calls of the source. No stated cut-off is given here; in the data, active = GI50 up to about 1.1 µM and inactive = higher.

Columns and labels:
Experiment in all cases: growth of human tumour cells (NCI), 48 h
[1] = tested on: HOP-92
[2] = tested on: CCRF-CEM
[3] = tested on: ACHN
[4] = tested on: A498
[5] = tested on: RPMI-8226
[6] = tested on: NCI-H460
[7] = tested on: CAKI-1
[8] = tested on: NCI-H522
[9] = tested on: RXF 393
[10] = tested on: MOLT-4
[11] = tested on: SF-539
[12] = tested on: SK-OV-3
[13] = tested on: K562
[14] = tested on: LOX IMVI
[15] = tested on: NCI-H23
[16] = tested on: UACC-62
[17] = tested on: EKVX

SMILES	GI50 [1]	GI50 [2]	GI50 [3]	GI50 [4]	GI50 [5]	GI50 [6]	GI50 [7]	GI50 [8]	GI50 [9]	GI50 [10]	GI50 [11]	GI50 [12]	GI50 [13]	GI50 [14]	GI50 [15]	GI50 [16]	GI50 [17]
CSC(=S)N/N=C/c1nccc2ccccc12	1.37 µM (inactive)	0.115 µM (active)	1.23 µM (inactive)	2.45 µM (inactive)	0.522 µM (active)	1.09 µM (active)	2.34 µM (inactive)	0.34 µM (active)	0.721 µM (active)	0.204 µM (active)	1.08 µM (active)	6.79 µM (inactive)	0.392 µM (active)	1.49 µM (inactive)	1.42 µM (inactive)	1.29 µM (inactive)	2.52 µM (inactive)
CC(=O)O[C@]1(C)OC(=O)[C@@H](CC(C)C)N1[N+](=O)[O-]		> 100 µM (inactive)	> 100 µM (inactive)	> 100 µM (inactive)	> 100 µM (inactive)	> 100 µM (inactive)		> 100 µM (inactive)	60.7 µM (inactive)	> 100 µM (inactive)	> 100 µM (inactive)	> 100 µM (inactive)	> 100 µM (inactive)	> 100 µM (inactive)	> 100 µM (inactive)	> 100 µM (inactive)	> 100 µM (inactive)
CC1(C)OC(=O)C(=C2CC(c3ccccc3)c3ccccc32)C(=O)O1 (stereo not drawn)	> 100 µM (inactive)	> 100 µM (inactive)	> 100 µM (inactive)	> 100 µM (inactive)	> 100 µM (inactive)	> 100 µM (inactive)	> 100 µM (inactive)	> 100 µM (inactive)	> 100 µM (inactive)	> 100 µM (inactive)	> 100 µM (inactive)	> 100 µM (inactive)	> 100 µM (inactive)	> 100 µM (inactive)	> 100 µM (inactive)		> 100 µM (inactive)
CCOc1ccc(/N=C\c2cc(OC)c(OC)c(OC)c2)cc1	> 100 µM (inactive)	> 100 µM (inactive)	> 100 µM (inactive)	> 100 µM (inactive)	18.2 µM (inactive)	> 100 µM (inactive)	> 100 µM (inactive)	> 100 µM (inactive)	2.08 µM (inactive)	> 100 µM (inactive)	> 100 µM (inactive)	> 100 µM (inactive)	52.5 µM (inactive)	> 100 µM (inactive)	> 100 µM (inactive)	> 100 µM (inactive)	> 100 µM (inactive)
C[C@]12CCC3[C@@H](CC[C@@H]4c5nonc5CC[C@]34C)C1CCC(=O)N2 (stereo partly drawn)	95.7 µM (inactive)	> 100 µM (inactive)	> 100 µM (inactive)	> 100 µM (inactive)	67.9 µM (inactive)	> 100 µM (inactive)	> 100 µM (inactive)	56.1 µM (inactive)	> 100 µM (inactive)	> 100 µM (inactive)	> 100 µM (inactive)	> 100 µM (inactive)	> 100 µM (inactive)	> 100 µM (inactive)	> 100 µM (inactive)	> 100 µM (inactive)	68.9 µM (inactive)
[O-][S+]1Nc2cccc(C(F)(F)F)c2S1 (stereo not drawn)	35.6 µM (inactive)	6.78 µM (inactive)	37.2 µM (inactive)	22.9 µM (inactive)	29 µM (inactive)	40.9 µM (inactive)	30.5 µM (inactive)	28.1 µM (inactive)	22.5 µM (inactive)	21 µM (inactive)	58.6 µM (inactive)	> 100 µM (inactive)	31.3 µM (inactive)	21.1 µM (inactive)	41.8 µM (inactive)	27.7 µM (inactive)	38.8 µM (inactive)
O=c1nc2sc3ccc4ccccc4c3n2nc1-c1ccccc1	21.4 µM (inactive)	> 100 µM (inactive)	27.8 µM (inactive)			22.1 µM (inactive)	31.1 µM (inactive)		21 µM (inactive)	> 100 µM (inactive)	14.8 µM (inactive)	36.1 µM (inactive)	> 100 µM (inactive)	15.1 µM (inactive)	27.2 µM (inactive)	64.4 µM (inactive)	41.8 µM (inactive)
CCOC(=O)NC(=O)c1cn(CCN2CCN(C(=O)CCCCCCCCCCNc3ncnc4[nH]cnc34)CC2)c(=O)[nH]c1=O	> 100 µM (inactive)	> 100 µM (inactive)	37.8 µM (inactive)		94 µM (inactive)	> 100 µM (inactive)	79.8 µM (inactive)		> 100 µM (inactive)	43.9 µM (inactive)	> 100 µM (inactive)	> 100 µM (inactive)	58.7 µM (inactive)	> 100 µM (inactive)	> 100 µM (inactive)	25.8 µM (inactive)	> 100 µM (inactive)
